Patent publication US11986471B2, “Compounds and methods of use” (Tango Therapeutics, Inc., priority 2018, dated 2024)

Experiments:
PRMT5 [1] = target: T1, PRMT5 (Homo sapiens, UniProt O14744); assay: PRMT5 IC50 assay with no cofactor; format: biochemical; conditions: read-out: No Co-factor IC50
T1 construct: purchased Viva (custom protein)
How it was run: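 Potency against PRMT5 is compared across cofactor states, where IC50 equals Ki×1.5 with SAM present and Ki×13.5 with MTA present.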

HAP1 MTAP-deleted = assay: SDMA in-cell western assay, HAP1 MTAP-deleted cell line; format: cell-based; conditions: for IC50: Homo sapiens, HAP1 MTAP-deleted cell line; for MTAP Intact/Deleted Ratio: IC50 ratio HAP1 MTAP-intact / HAP1 MTAP-deleted
How it was run: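 Readout is cellular SDMA signal by in-cell western, with IC50 values derived from it. The cells are MTAP-null HAP1, matched to an isogenic MTAP-intact HAP1 line.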

PRMT5 [2] = target: T1, PRMT5; assay: PRMT5 IC50 assay in the presence of MTA as cofactor; format: biochemical; conditions: for IC50: PRMT5, MTA as cofactor; for SAM/MTA Ratio: ratio between Ki in the presence of SAM and Ki in the presence of MTA
How it was run: (§1)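 IC50 values were measured against human PRMT5 with SAM, with MTA, or with no cofactor. Ki was derived from IC50 as Ki=IC50/1.5 with SAM and Ki=IC50/13.5 with MTA, and the Ki(SAM)/Ki(MTA) ratio was then taken.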

PRMT5 [3] = target: T1, PRMT5; assay: PRMT5 IC50 assay in the presence of SAM as cofactor; format: biochemical
How it was run: as §1

HAP1 MTAP-intact = assay: SDMA in-cell western assay, HAP1 MTAP-intact cell line; format: cell-based; conditions: Homo sapiens
How it was run: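 IC50 values come from SDMA in-cell western staining of HAP1 cells. The MTAP-intact line carries endogenous MTAP, while its MTAP-deleted counterpart lacks MTAP entirely. A selectivity ratio of at least 3 fold marks a compound as MTAP-selective.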

T1 sequence (O14744 whole entry): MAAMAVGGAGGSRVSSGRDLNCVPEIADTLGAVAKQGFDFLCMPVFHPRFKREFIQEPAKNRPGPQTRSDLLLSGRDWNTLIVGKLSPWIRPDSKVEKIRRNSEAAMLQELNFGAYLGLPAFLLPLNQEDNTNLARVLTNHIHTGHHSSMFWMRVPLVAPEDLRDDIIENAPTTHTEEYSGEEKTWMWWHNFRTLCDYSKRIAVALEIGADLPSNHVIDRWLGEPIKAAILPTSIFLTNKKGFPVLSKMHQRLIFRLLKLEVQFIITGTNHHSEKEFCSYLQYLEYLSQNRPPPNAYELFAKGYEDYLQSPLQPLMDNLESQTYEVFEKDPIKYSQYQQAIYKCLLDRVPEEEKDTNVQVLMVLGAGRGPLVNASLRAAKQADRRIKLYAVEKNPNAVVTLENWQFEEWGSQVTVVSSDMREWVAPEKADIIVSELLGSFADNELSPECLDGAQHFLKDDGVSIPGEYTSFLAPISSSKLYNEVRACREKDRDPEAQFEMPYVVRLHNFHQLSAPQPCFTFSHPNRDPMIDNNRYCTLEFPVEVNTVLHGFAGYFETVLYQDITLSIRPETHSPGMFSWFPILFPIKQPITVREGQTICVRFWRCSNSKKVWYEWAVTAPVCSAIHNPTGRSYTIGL
T1 sequence (Q9BQA1 whole entry partner): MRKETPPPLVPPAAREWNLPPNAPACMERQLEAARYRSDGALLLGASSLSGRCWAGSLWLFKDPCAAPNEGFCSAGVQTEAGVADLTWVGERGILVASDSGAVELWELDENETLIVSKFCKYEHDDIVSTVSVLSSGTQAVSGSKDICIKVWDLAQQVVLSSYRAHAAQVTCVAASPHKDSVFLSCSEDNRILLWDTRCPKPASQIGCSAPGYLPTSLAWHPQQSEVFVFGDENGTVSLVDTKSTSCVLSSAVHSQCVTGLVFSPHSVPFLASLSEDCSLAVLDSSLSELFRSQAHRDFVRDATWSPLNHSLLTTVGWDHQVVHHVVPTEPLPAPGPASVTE

Row | SMILES | IC50 (PRMT5 [1]) [nM] | IC50 (HAP1 MTAP-deleted) [nM] | IC50 (PRMT5 [2]) [nM] | IC50 (PRMT5 [3]) [nM] | IC50 (HAP1 MTAP-intact) [nM] | MTAP Intact/Deleted Ratio (HAP1 MTAP-deleted) | SAM/MTA Ratio (PRMT5 [2])
1 | CC(=O)N1CCN(c2nc(NC3COC3)cc(C(=O)NC[C@H](O)CN3CCc4cc(OCc5ocnc5C)ccc4C3)n2)CC1 [Compound 401, 2-(4-acetylpiperazin-1-yl)-N-[(2S)-2-hydroxy-3-{6-[(4-methyl-E3-oxazol-5-yl)methoxy]-1,2,3,4-tetrahydroisoquinolin-2-yl}propyl]-6-[(oxetan-3-yl)amino]pyrimidine-4-carboxamide] | 500 to 5000 | 1000 to 10000 | 50 to 500 | 50 to 500 | ≥ 10000 | B* (an IC50 ratio greater than or equal to 3 fold but lower than 10 fold between the IC50 in the HAP1 MTAP-intact cell line and the HAP1 MTAP-deleted cell line) | A (a Ki ratio greater than or equal to 10 fold between the Ki in the presence of SAM and the Ki in the presence of MTA)
2 | Cc1c(OCc2cnco2)ccc2c1CCN(C[C@@H](O)CNC(=O)c1ccnc(NC3CCN(C(=O)C(C)(C)C)CC3)c1)C2 [Compound 402, (S)—N-(2-hydroxy-3-(5-methyl-6-(oxazol-5-ylmethoxy)-3N-dihydroisoquinolin-2(1H)-yl)propyl)-2-((1-pivaloylpiperidin-4-yl)amino)isonicotinamide] | 500 to 5000 | 1000 to 10000 | 50 to 500 | 50 to 500 | ≥ 10000 | B* (an IC50 ratio greater than or equal to 3 fold but lower than 10 fold between the IC50 in the HAP1 MTAP-intact cell line and the HAP1 MTAP-deleted cell line) | A (a Ki ratio greater than or equal to 10 fold between the Ki in the presence of SAM and the Ki in the presence of MTA)
3 | O=C(NC[C@H](O)CN1CCc2c(ccc(OCc3cnco3)c2Br)C1)c1ccnc(NC2CCCC2)c1 [Compound 404, (S)—N-(3-(5-bromo-6-(oxazol-5-ylmethoxy)-3N-dihydroisoquinolin-2(1H)-yl)-2-hydroxypropyl)-2-(cyclopentylamino)isonicotinamide] | ≥ 5000 | ≥ 10000 | 50 to 500 | 50 to 500 | ≥ 10000 | C* (an IC50 ratio of less than 3 fold between the IC50 in the HAP1 MTAP-intact cell line and the HAP1 MTAP-deleted cell line) | A (a Ki ratio greater than or equal to 10 fold between the Ki in the presence of SAM and the Ki in the presence of MTA)
4 | Cc1ncoc1COc1ccc2c(c1)CCN(C[C@@H](O)CNC(=O)c1cc(NC3COC3)nc(N3CCCCC3)n1)C2 [Compound 405, N-[(2S)-2-hydroxy-3-{6-[(4-methyl-1,3-oxazol-5-yl)methoxy]-1,2,3,4-tetrahydroisoquinolin-2-yl}propyl]-6-[(oxetan-3-yl)amino]-2-(piperidin-1-yl)pyrimidine-4-carboxamide] | 500 to 5000 | < 1000 | 50 to 500 | 50 to 500 | < 1000 | B* (an IC50 ratio greater than or equal to 3 fold but lower than 10 fold between the IC50 in the HAP1 MTAP-intact cell line and the HAP1 MTAP-deleted cell line) | A (a Ki ratio greater than or equal to 10 fold between the Ki in the presence of SAM and the Ki in the presence of MTA)
5 | Cc1ncoc1COc1ccc2c(c1)CCN(C[C@@H](O)CNC(=O)c1cc(NC3CCC3)nc(OCCN(C)C)c1)C2 [Compound 406, 2-(cyclobutylamino)-6-[2-(dimethylamino)ethoxy]-N-[(2S)-2-hydroxy-3-{6-[(4-methyl-1,3-oxazol-5-yl)methoxy]-1,2,3,4-tetrahydroisoquinolin-2-yl}propyl]pyridine-4-carboxamide] | 500 to 5000 | < 1000 | < 50 | 50 to 500 | < 1000 | B* (an IC50 ratio greater than or equal to 3 fold but lower than 10 fold between the IC50 in the HAP1 MTAP-intact cell line and the HAP1 MTAP-deleted cell line) | A (a Ki ratio greater than or equal to 10 fold between the Ki in the presence of SAM and the Ki in the presence of MTA)
6 | COCCN(C)c1nc(NC2COC2)cc(C(=O)NC[C@H](O)CN2CCc3cc(OCc4ocnc4C)ccc3C2)n1 [Compound 408, N-[(2S)-2-hydroxy-3-{6-[(4-methyl-1,3-oxazol-5-yl)methoxy]-1,2,3,4-tetrahydroisoquinolin-2-yl}propyl]-2-[(2-methoxyethyl)(methyl)amino]-6-[(oxetan-3-yl)amino]pyrimidine-4-carboxamide] | 500 to 5000 | < 1000 | 50 to 500 | 50 to 500 | < 1000 | C* (an IC50 ratio of less than 3 fold between the IC50 in the HAP1 MTAP-intact cell line and the HAP1 MTAP-deleted cell line) | A (a Ki ratio greater than or equal to 10 fold between the Ki in the presence of SAM and the Ki in the presence of MTA)
7 | CCC(=O)N1CCN(c2nc(NC3COC3)cc(C(=O)NC[C@H](O)CN3CCc4cc(OCc5ocnc5C)ccc4C3)n2)CC1 [Compound 409, N-[(2S)-2-hydroxy-3-{6-[(4-methyl-1,3-oxazol-5-yl)methoxy]-1,2,3,4-tetrahydroisoquinolin-2-yl}propyl]-6-[(oxetan-3-yl)amino]-2-(4-propanoylpiperazin-1-yl)pyrimidine-4-carboxamide] | 500 to 5000 | 1000 to 10000 | 50 to 500 | 50 to 500 | ≥ 10000 | B* (an IC50 ratio greater than or equal to 3 fold but lower than 10 fold between the IC50 in the HAP1 MTAP-intact cell line and the HAP1 MTAP-deleted cell line) | A (a Ki ratio greater than or equal to 10 fold between the Ki in the presence of SAM and the Ki in the presence of MTA)
8 | CCN1CCN(c2cc(C(=O)NC[C@H](O)CN3CCc4cc(OCc5ocnc5C)ccc4C3)cc(NC3CCC3)n2)CC1 [Compound 410, 2-(cyclobutylamino)-6-(4-ethylpiperazin-1-yl)-N-[(2S)-2-hydroxy-3-{6-[(4-methyl-1,3-oxazol-5-yl)methoxy]-1,2,3,4-tetrahydroisoquinolin-2-yl}propyl]pyridine-4-carboxamide] | 500 to 5000 | < 1000 | 50 to 500 | 50 to 500 | < 1000 | B* (an IC50 ratio greater than or equal to 3 fold but lower than 10 fold between the IC50 in the HAP1 MTAP-intact cell line and the HAP1 MTAP-deleted cell line) | A (a Ki ratio greater than or equal to 10 fold between the Ki in the presence of SAM and the Ki in the presence of MTA)

Now from value to compound, other results behind:

Row | IC50 (PRMT5 [1]) [nM] | IC50 (HAP1 MTAP-deleted) [nM] | IC50 (PRMT5 [2]) [nM] | IC50 (PRMT5 [3]) [nM] | IC50 (HAP1 MTAP-intact) [nM] | SMILES | MTAP Intact/Deleted Ratio (HAP1 MTAP-deleted) | SAM/MTA Ratio (PRMT5 [2])
9 | 500 to 5000 | ≥ 10000 | 50 to 500 | 50 to 500 | < 1000 | Cc1ncoc1COc1ccc2c(c1)CCN(C[C@@H](O)CNC(=O)c1cc(NC3CCC3)nc(N3CCN(C(C)(C)C)CC3)c1)C2 [Compound 403, 2-(4-tert-butylpiperazin-1-yl)-6-(cyclobutylamino)-N-[(2S)-2-hydroxy-3-{6-[(4-methyl-1,3-oxazol-5-yl)methoxy]-1,2,3,4-tetrahydroisoquinolin-2-yl}propyl]pyridine-4-carboxamide] | C* (an IC50 ratio of less than 3 fold between the IC50 in the HAP1 MTAP-intact cell line and the HAP1 MTAP-deleted cell line) | A (a Ki ratio greater than or equal to 10 fold between the Ki in the presence of SAM and the Ki in the presence of MTA)
10 | ≥ 5000 | < 1000 | 50 to 500 | 50 to 500 | < 1000 | O=C(NC[C@H](O)CN1CCc2cc(OCc3cnco3)ccc2C1)c1ccnc(NC2CCCC2)c1 [Compound 407, (S)-2-(cxclopentylamino)-N-(2-hydroxy-3-(6-(oxazol-5-ylmethoxy)-3N-dihydroisoquinolin-2(1H)-yl)propyl)isonicotinamide] | B* (an IC50 ratio greater than or equal to 3 fold but lower than 10 fold between the IC50 in the HAP1 MTAP-intact cell line and the HAP1 MTAP-deleted cell line) | A (a Ki ratio greater than or equal to 10 fold between the Ki in the presence of SAM and the Ki in the presence of MTA)
11 | 500 to 5000 | < 1000 | 50 to 500 | 50 to 500 | ≥ 10000 | Cc1ncoc1COc1ccc2c(c1C)CCN(C[C@@H](O)CNC(=O)c1cc(NC3CCC3)nc(N3CCN(C(=O)C4CC4)CC3)c1)C2 [Compound 411, 2-(cyclobutylamino)-6-(4-cvclopropanecarbonylpiperazin-1-yl)-N-[(2S)-2-hydroxy-3-{5-methyl-6-[(4-methyl-1,3-oxazol-5-yl)methoxy]1,2,3,4-tetrahydroisoquinolin-2-yl}propyl]pyridine-4-carboxamide] | A* (an IC50 ratio greater than or equal to 10 fold between the IC50 in the HAP1 MTAP-intact cell line and the HAP1 MTAP-deleted cell line) | A (a Ki ratio greater than or equal to 10 fold between the Ki in the presence of SAM and the Ki in the presence of MTA)
